Our source for the IC50 values is patent publication US20250154154A1 (Relay Binney Street, 2nd Floor, priority 2020, published 2025).

This assay addresses SRC (Homo sapiens, UniProt P12931). In words: SRC Biochemical Assay Protocol (microfluidic mobility shift assay, FLPeptide4 substrate). How it is done: SRC Biochemical Assay Protocol
Src biochemical kinase activity was measured using a surrogate fluorescent peptide substrate [FLPeptide4; 5-FAM-EGIYGVLFKKK-CONH2 (PerkinElmer Cat. No. 760348)] with a microfluidic mobility shift assay. Reactions were performed in 384-well flat bottom polystyrene microplates (Corning Cat. No. 3570) at a final volume of 20 μL in 50 mM HEPES pH 7.4, 1 mM EGTA, 10 mM MgCl2, 0.01% Brij-35, 2 mM DTT, 0.05% BSA, 1% DMSO. Inhibition experiments were performed with compounds of the invention varying from 0.0017-100 μM with 0.26 nM SRC, 1.5 μM FLPeptide4, and 50 μM ATP. Specifically, 15 μl 1.3× mixtures of SRC+FLPeptide4+compounds were preincubated for 30 minutes at room temperature followed by addition of 5 μL 4×ATP. Reactions were carried out for 90 minutes then quenched with 40 μl 500 mM EDTA. Phosphorylated peptide product was measured with a mobility shift assay using a LabChip® EZ Reader system (PerkinElmer Cat. No. 122919). Inhibition ratios were calculated relative to neutral controls and IC50 values were obtained from dose response data fitted to a 4-parameter logistic model.
As to `Cn1c(C#CC2CCN(C(=O)/C=C/CN3CCOCC3)CC2)c(-c2ccc(Oc3ccccc3)cc2)c2c(N)ncnc21` [III-41], the IC50 lay within 10 to 1000 nM.

Take `C=CC(=O)N1CCC(N2CC(C#Cc3c(-c4ccc(Oc5cccc(C)n5)c5c4OCO5)c4c(N)ncnc4n3C)C2)CC1` [III-90]: the IC50 lay in the range of 10 to 1000 nM.

With `Cn1c(C#CC2CCNCC2)c(-c2ccc(Oc3ccccc3)cc2)c2c(N)ncnc21` [II-159, 7-methyl-5-(4-phenoxyphenyl)-6-(piperidin-4-ylethynyl)-7H-pyrrolo[2,3-d]pyrimidin-4-amine], the IC50 was 10 to 1000 nM.

`C=C(C)C(=O)N1CCC(O)(C#Cc2c(-c3ccc(Oc4ccccc4)cc3)c3c(N)ncnc3n2C)CC1` [III-35]: the IC50 fell in the range of 10 to 1000 nM.

In the case of `C=CC(=O)N1CCC(C#Cc2c(-c3ccc(Oc4cccc(F)c4)cc3)c3c(N)ncnc3n2C(C)C)CC1` [Example I-28], the IC50 fell in the range of 10 to 1000 nM.

On to `C=CC(=O)N1CCC(N2CC(C#Cc3c(-c4ccc(Oc5ccccc5)cc4)c4c(N)ncnc4n3C)C2)CC1` [III-25], for which the IC50 was 10 to 1000 nM.

On to `C=CC(=O)N[C@H](C)C(=O)N1CCC(C#Cc2c(-c3ccc(Oc4ccccc4)cc3)c3c(N)ncnc3n2C2CCOC2)CC1` (stereo partly shown) [III-76], for which the IC50 is ≤ 10 nM.

On to `C=CC(=O)N1CCC(N2CC(N)(C#Cc3c(-c4ccc(Oc5cccc(C)n5)c(OC)c4)c4c(N)ncnc4n3C)C2)CC1` [III-93], for which the IC50 lay in the range of 1000 to 10000 nM.

`CN(C)C/C=C/C(=O)N1CCC(O)(C#Cc2c(-c3ccc(Oc4ccccc4)cc3)c3c(N)ncnc3n2C)CC1` [III-16]: the IC50 fell in the range of 10 to 1000 nM.

`CC(CO)n1c(C#CC2CCN(C(=O)/C=C/CN(C)C)CC2)c(-c2ccc(Oc3ccccc3)cc2)c2c(N)ncnc21` (stereo not shown) [III-31]: the IC50 was in the range of 10 to 1000 nM.

Take `C=CC(=O)N1CCC(C#Cc2c(-c3ccc(OCC4CCCC4)cc3)c3c(N)ncnc3n2C(C)C)CC1` [Example I-16]: the IC50 is 10 to 1000 nM.

Regarding `C=CC(=O)NCC#Cc1c(-c2ccc(Oc3ncccn3)cc2)c2c(N)ncnc2n1C` [III-95], the IC50 was in the range of 1000 to 10000 nM.

`C=CS(=O)(=O)N1CC(C#Cc2c(-c3ccc(Oc4ccccc4)cc3)c3c(N)ncnc3n2C(C)C)C1` [Example I-17]: the half-maximal inhibitory concentration (IC50) is ≤ 10 nM.

As to `C=CC(=O)N1CCC(O)(C#Cc2c(-c3ccc(Oc4ccccc4)cc3)c3c(N)ncnc3n2C)C[C@H]1C` (stereo partly shown) [III-48], the IC50 is 10 to 1000 nM.

With `C=CC(=O)N1CCC(O)(C#Cc2c(-c3ccc(Oc4ccccc4)c(F)c3)c3c(N)ncnc3n2C)CC1` [III-62], the IC50 lay within 10 to 1000 nM.

Regarding `C=CC(=O)N1CCC(C#Cc2c(-c3ccc(Oc4cccc(C)c4)cc3)c3c(N)ncnc3n2C(C)C)CC1` [Example I-21], the IC50 lay within 10 to 1000 nM.

For the compound `CC(CO)n1c(C#CC2(O)CCN(C(=O)/C=C/CN(C)C)CC2)c(-c2ccc(Oc3ccccc3)cc2)c2c(N)ncnc21` (stereo not shown) [III-27], the IC50 lay in the range of 10 to 1000 nM.

Regarding `C=CC(=O)N1CCC(C#Cc2c(-c3ccc(Oc4ccccc4)cc3)c3c(N)ncnc3n2CCCCN(C)C)C1` (stereo not shown) [III-20], the IC50 is 10 to 1000 nM.

As for `C=CC(=O)N1CCC(O)(C#Cc2c(-c3ccc(Oc4ccccc4)cc3)c3c(N)ncnc3n2C)C1` (stereo not shown) [III-13], the IC50 was ≤ 10 nM.

For the compound `C=CC(=O)N1CCC(C#Cc2c(-c3cnc(Oc4ccccc4)nc3)c3c(N)ncnc3n2C(C)C)CC1` [Example I-13], the IC50 fell in the range of 1000 to 10000 nM.

For `CN(C)C/C=C/C(=O)N1CC(C#Cc2c(-c3ccc(Oc4ccccc4)cc3)c3c(N)ncnc3n2C)C1` [III-84], the IC50 fell in the range of 10 to 1000 nM.

As for `CC(C)n1c(C#CC2CNC2)c(-c2ccc(Oc3ccccc3)cc2)c2c(N)ncnc21` [II-152, 6-(azetidin-3-ylethynyl)-7-isopropyl-5-(4-phenoxyphenyl)-7H-pyrrolo[2,3-d]pyrimidin-4-amine], the IC50 is ≤ 10 nM.

For `C=C(C)C(=O)N1CCC(C#Cc2c(-c3ccc(Oc4ccccc4)cc3)c3c(N)ncnc3n2C)CC1` [III-40], the IC50 lay in the range of 10 to 1000 nM.

`CC(C)n1c(C#CC2(O)CCN(C(=O)/C=C/CN(C)C)CC2)c(-c2ccc(Oc3ccccc3)cc2)c2c(N)ncnc21` [III-24]: the IC50 is ≤ 10 nM.

In the case of `C=CC(=O)N1CCC(C#Cc2c(-c3ccc(Oc4ccccc4C#N)cc3)c3c(N)ncnc3n2C(C)C)CC1` [Example I-31], the half-maximal inhibitory concentration (IC50) lay in the range of 10 to 1000 nM.

With `Cn1c(C#CC2CN(C(=O)/C=C/CN3CCOCC3)C2)c(-c2ccc(Oc3ccccc3)cc2)c2c(N)ncnc21` [III-61], the IC50 lay within 10 to 1000 nM.

For the compound `CC(C)n1c(C#CC2CCN(C)CC2)c(-c2ccc(Oc3ccccc3)cc2)c2c(N)ncnc21` [II-141, 7-isopropyl-6-((1-methylpiperidin-4-yl)ethynyl)-5-(4-phenoxyphenyl)-7H-pyrrolo[2,3-d]pyrimidin-4-amine], the IC50 is ≤ 10 nM.

As to `C=CC(=O)N1CCC(N2CC(C#Cc3c(-c4ccc(Oc5ccccc5)cc4)c4c(N)ncnc4n3C)C2)C(C)C1` (stereo not shown) [III-49], the IC50 fell in the range of 10 to 1000 nM.

Consider `CN(C)C/C=C/C(=O)N1CCC(C#Cc2c(-c3ccc(Oc4ccccc4)cc3)c3c(N)ncnc3n2C)C1` (stereo not shown) [III-22], for which the concentration for half-maximal inhibition (IC50) was in the range of 10 to 1000 nM.

`Cn1c(C#CC2(O)CCN(C(=O)/C=C/CN3CCOCC3)CC2)c(-c2ccc(Oc3ccccc3)cc2)c2c(N)ncnc21` [III-39]: the IC50 lay within 10 to 1000 nM.

On to `C=CC(=O)N1CCC(N2CC(C#Cc3c(-c4ccc(Oc5ccccc5)cc4)c4c(N)ncnc4n3[C@@H]3CCOC3)C2)CC1` [III-55], for which the IC50 is ≤ 10 nM.

For `Nc1ncnc2c1c(-c1ccc(Oc3ccccc3)cc1)c(C#CC1CCN(C(=O)/C=C/CN3CCOCC3)CC1)n2[C@H]1CCOC1` [III-36], the IC50 is 10 to 1000 nM.

With `C=CC(=O)N1CCC(N2CC(C#Cc3c(-c4ccc(Oc5cccc(C)n5)c(OC)c4)c4c(N)ncnc4n3CC)C2)CC1` [II-121], the IC50 was in the range of 10 to 1000 nM.

Regarding `COC(=O)C(C)N1CCC(C#Cc2c(-c3ccc(Oc4ccccc4)cc3)c3c(N)ncnc3n2C(C)C)CC1` (stereo not shown) [II-148, methyl 2-(4-((4-amino-7-isopropyl-5-(4-phenoxyphenyl)-7H-pyrrolo[2,3-d]pyrimidin-6-yl)ethynyl)piperidin-1-yl)propanoate], the IC50 was 10 to 1000 nM.

Regarding `COc1cc(-c2c(C#CC3CN(C)C3)n(C)c3ncnc(N)c23)ccc1Oc1cccc(C)n1` [III-86], the IC50 is 10 to 1000 nM.

As for `C=CC(=O)N1CC[C@@H](C#Cc2c(-c3ccc(Oc4ccccc4)cc3)c3c(N)ncnc3n2C)C[C@@H]1C` [III-79], the IC50 was 10 to 1000 nM.

Consider `C=CC(=O)N1CCC(N2CC(C#Cc3c(-c4ccc(Oc5ccccc5)cc4F)c4c(N)ncnc4n3C)C2)CC1` [III-82], for which the IC50 lay in the range of 10 to 1000 nM.

Take `C=CC(=O)NCC#Cc1c(-c2ccc(Oc3ncccn3)c(OC)c2)c2c(N)ncnc2n1C` [III-94]: the IC50 was in the range of 1000 to 10000 nM.

As to `C=CC(=O)N1CCC(N2CC(C#Cc3c(-c4ccc(Oc5ccccc5)c5c4OCO5)c4c(N)ncnc4n3C)C2)CC1` [III-85], the IC50 was ≤ 10 nM.

Take `C=CC(=O)N1CCC(N2CC(C#Cc3c(-c4ccc(Oc5ccccc5)cc4)c4c(N)ncnc4n3[C@H]3CCOC3)C2)CC1` [III-63]: the IC50 was ≤ 10 nM.

“N-[(1r,4r)-4-[2-[4- amino-7-(2- hydroxyethyl)-5- [3-methoxy-4-[(6- methylpyridin-2- yl)oxy]phenyl]- 7H-pyrrolo[2,3- d]pyrimidin-6- yllethynyl] cyclohexyl] prop-2- enamide [II-311]”: the IC50 was ≤ 10 nM.

Regarding `C=CS(=O)(=O)N1CCC(C#Cc2c(-c3ccc(Oc4ccccc4)cc3)c3c(N)ncnc3n2C(C)C)CC1` [Example I-37], the IC50 is ≤ 10 nM.

Consider `C=CC(=O)N1CC[C@H](N2CC(C#Cc3c(-c4ccc(Oc5ccccc5)cc4)c4c(N)ncnc4n3C)C2)[C@@H](C)C1` [III-69], for which the IC50 was in the range of 10 to 1000 nM.

Regarding `Cn1c(C#CC2CN(C(=O)/C=C/CN3CCC3)C2)c(-c2ccc(Oc3ccccc3)cc2)c2c(N)ncnc21` [III-81], the IC50 lay in the range of 10 to 1000 nM.

With “1-(4-(3-((4-amino- 7-isopropyl-5-(3- methoxy-4-(6- methylpyridin-2- yloxy)phenyl)-7H- pyrrolo[2,3- d]pyrimidin-6- yl)ethynyl)azetidin- 1-yl)piperidin-1- yl)prop-2-en-1-one [II-306]”, the IC50 fell in the range of 10 to 1000 nM.

Consider `C=CC(=O)N[C@H]1CC[C@H](C#Cc2c(-c3ccc(Oc4cccc(C)n4)c(OC)c3)c3c(N)ncnc3n2C)CC1` [III-4], for which the concentration for half-maximal inhibition (IC50) lay within 10 to 1000 nM.

Turning to `C=CC(=O)N1CCC(N2CC(C#Cc3c(-c4ccc(Oc5ccccc5)cc4OC)c4c(N)ncnc4n3C)C2)CC1` [III-80], the IC50 lay in the range of 10 to 1000 nM.

As for `C=CC(=O)N1CCC(C#Cc2c(-c3ccc(Oc4cnccn4)cc3)c3c(N)ncnc3n2C(C)C)CC1` [Example I-14], the IC50 was in the range of 10 to 1000 nM.

For `CCC(=O)N1CCC(C#Cc2c(-c3ccc(Oc4ccccc4)cc3)c3c(N)ncnc3n2C2CCOC2)CC1` (stereo not shown) [II-156, 1-(4-((4-amino-5-(4-phenoxyphenyl)-7-(tetrahydrofuran-3-yl)-7H-pyrrolo[2,3-d]pyrimidin-6-yl)ethynyl)piperidin-1-yl)propan-1-one], the IC50 was in the range of 10 to 1000 nM.

As to `C=CC(=O)N1CC[C@H](N2CC(C#Cc3c(-c4ccc(Oc5ccccc5)cc4)c4c(N)ncnc4n3C)C2)[C@H](C)C1` [III-65], the IC50 was 10 to 1000 nM.

As for `Nc1ncnc2c1c(-c1ccc(Oc3ccccc3)cc1)c(C#CC1CCNCC1)n2C1CCOC1` (stereo not shown) [II-155, 5-(4-phenoxyphenyl)-6-(piperidin-4-ylethynyl)-7-(tetrahydrofuran-3-yl)-7H-pyrrolo[2,3-d]pyrimidin-4-amine], the IC50 was ≤ 10 nM.

In the case of `C=CC(=O)N1CCC(N2CC(C#Cc3c(-c4ccc(Oc5ccccc5)cc4)c4c(N)ncnc4n3[C@H]3C[C@H](O)C3)C2)CC1` [III-68], the IC50 was 10 to 1000 nM.

As a reminder, the IC50 is the midpoint of a concentration-inhibition curve.
